Columns and labels:
Na^+,K+ -ATPase [1] = target: T1, Na^+,K+ -ATPase (Canis lupus familiaris, UniProt P50997); test: displacement of the specific ^3 H-ouabain binding from the Na^+,K+ -ATPase receptor
T1 construct: Na^+,K+ -ATPase receptor purified according to Jorghensen; from tissue
Excerpt: (§1) To test the affinity for the receptor site of the Na^+,K+ -ATPase and the agonist or antagonist activity on the enzyme, the following tests were used:
a) displacement of the specific ^3 H-ouabain binding from the Na^+,K+ -ATPase receptor purified according to Jorghensen (Jorghensen P., BBA, 1974, 356, 36) and Erdmann (Erdmann E. et al., Arzneim. Forsh., 1984, 34, 1314);

Na^+,K+ -ATPase [2] = target: T1, Na^+,K+ -ATPase; test: inhibition of the activity of the purified Na^+,K+ -ATPase measured as % of hydrolysis of ^32 P-ATP; format: biochemical
Excerpt: as §1
b) inhibition of the activity of the purified Na^+,K+ -ATPase measured as % of hydrolysis of ^32 P-ATP in presence and in absence of the tested compound (Mall F. et al., Biochem. Pharmacol, 1984, 33, 47)

Na^+,K+ -ATPase [3] = settings: Gelbart and Thomas 1978; Schonfeld and Repke 1988; Thomas et al. 1974; Boutagy et al. 1973; cited from earlier work
[4] = Gelbart and Thomas 1978; Schonfeld and Repke 1988; cited from earlier work
[5] = test system: spontaneous hypertensive rats (MHS); test: effect of 5 week-treatment on the development of hypertension in rats (SBP and HR, tail cuff method); format: in vivo, rat; settings: 20 mg/Kg/os daily in Methocel 0.5% w/v, 5 weeks, 7 rats; for SBP: controls 172 +/- 3.5; for HR: controls 380 +/- 9.0
Method: Systolic blood pressure (SBP) and heart rate (HR) were measured, by the tail cuff method, in young prehypertensive male rats (MHS or SHR) strains before the development of hypertension (4 weeks of age) for recording the basal values of SBP. Groups of 7 rats were formed and subdivided in control and treated groups. The compound, suspended in Methocel 0.5 % (w/v), was orally given daily for at least 5 weeks to the treated groups. The control group received only Methocel.
SBP and HR were measured weekly 6 and 24 hrs after treatment. After 5 weeks of treatment, when hypertension was fully developed in the control group (9 weeks of age), washout was started for at least one week, to verify whether the treatment mantained blood pressure low or reestablished the basal values. […] (Takeda K. et al., Japan J. Pharmacol, 1979, 29,171; Takeda K. et al. Japan J. Pharmacol., 1982, 32, 283; Richer C. et al. Eur. J. Pharmacol, 1978, 47,393).

[6] = purified Na^+,K+ -ATPase receptor, read-out: Binding ^3 H-Ouab. Displacement log IC50 (converted)
[7] = purified Na^+,K+ -ATPase, hydrolysis of ^32 P-ATP, read-out: Inhibitory Activity log IC50 (converted)
[8] = purified Na^+,K+ -ATPase, hydrolysis of ^32 P-ATP

Structure (SMILES) | IC50 (Na^+,K+ -ATPase [1]) [nM] | IC50 (Na^+,K+ -ATPase [2]) [nM] | IC50 (Na^+,K+ -ATPase [1]; [6]) [nM] | IC50 (Na^+,K+ -ATPase [2]; [7]) [nM] | further results
C[C@]12CC[C@H](OCCCN)C[C@H]1CC[C@@H]1[C@@H]2CC[C@]2(C)[C@@H](/C=N/NC3=NCCN3)CC[C@]12O [Comp. I-au, (E)-3β-(3-Aminopropoxy)-17β(2-imidazolin-2-yl)hydrazonomethyl-5β-androstane-14β-ol] | 100 | 3980 | – | – | –
C[C@]12CCC(=NNC(=N)N)C[C@H]1CC[C@@H]1[C@@H]2CC[C@]2(C)[C@@H](/C=N/NC(=N)N)CC[C@]12O [Comp. I-bi, 3-[(ZE)-Guanidinoimino]-17β-[(E)-guanidinoiminomethyl]-5β-androstane-14β-ol] | 126 | 5010 | – | – | –
C[C@]12CC[C@H](O)C[C@H]1CC[C@@H]1[C@@H]2CC[C@]2(C)[C@@](O)(/C=N/NC(=N)N)CC[C@]12O [Comp. I-bl, (E)-17β-Guanidinoiminomethyl-5β-androstane-3β,14β,17α-triol] | – | – | 1580 | 39800 | –
C[C@]12CC[C@H](O)C[C@H]1CC[C@@H]1[C@@H]2CC[C@]2(C)[C@@H](/C=N/NC(=N)NC(=N)N)CC[C@]12O [Comp. I-af, (E)-17β-(3-Amidino)guanidinoiminomethyl-5β-androstane-3β,14β-diol] | 200 | 7940 | – | – | –
C[C@]12CC[C@H](OCCCN)C[C@H]1CC[C@@H]1[C@@H]2CC[C@]2(C)[C@@H](/C=N/NC(N)=O)CC[C@]12O [Comp. I-aq, (E)-3β-(3-Aminopropoxy)-17β-semicarbazonomethyl-5β-androstane-14β-ol] | 1260 | – | – | 39800 | –
C[C@]12CC[C@H](O)C[C@H]1CC[C@@H]1[C@@H]2CC[C@]2(C)C(=NNC(=N)N)CC[C@]12O [17-guanidinoimino-5β-androstane-3β,14β-diol] | – | – | – | – | inhibition of Na^+,K+ -ATPase (Na^+,K+ -ATPase [3]): weak inhibitors of Na^+,K+ -ATPase; positive inotropic activity [4]: weak positive inotropic agents
CN1CCN=C1N/N=C/[C@H]1CC[C@]2(O)[C@@H]3CC[C@@H]4C[C@@H](O)CC[C@]4(C)[C@H]3CC[C@]12C [Comp. I-ac, (E)-17β-(1-Methyl-2-imidazolin-2-yl)hydrazono-methyl-5β-androstane-3β,14β-diol] | 1000 | 12600 | – | – | –
C[C@]12CC[C@H](OCCCN)C[C@H]1CC[C@@H]1[C@@H]2CC[C@]2(C)[C@@H](/C=N/NC(=N)N)CC[C@]12O [Comp. I-al, (E)-3β-(3-Aminopropoxy)-17β-guanidinoiminomethyl-5β-androstane-14β-ol] | 39.8 | – | – | 794 | SBP [5]: 153 +/- 6.3 mm Hg; HR [5]: 380 +/- 10.0 beats/min.
C[C@]12CC[C@H](O)C[C@H]1CC[C@@H]1[C@@H]2CC[C@]2(C)[C@@H](/C=N/NC3=NCCN3)CC[C@]12O [Comp. I-aa, (E)-17β-(2-Imidazolin-2-yl)hydrazonomethyl-5β-androstane-3β,14β-diol] | 200 | – | – | – | SBP [5]: 149 +/- 3.7 mm Hg; HR [5]: 370 +/- 11.2 beats/min.; Inhibitory Activity log IC50 (Na^+,K+ -ATPase [2]; [8]): 5.2
CN(C)CCNC(=N)N/N=C/[C@H]1CC[C@]2(O)[C@@H]3CC[C@@H]4C[C@@H](O)CC[C@]4(C)[C@H]3CC[C@]12C [Comp. I-ag, (E)-17β-(3-(2-Dimethylaminoethyl)guanidinoimino)methyl-5β-androstane-3β,14β-diol] | – | 25100 | 1000 | – | SBP [5]: 154 +/- 4.8 mm Hg; HR [5]: 390 +/- 5.9 beats/min.
C[C@]12CC[C@H](O)C[C@H]1CC[C@@H]1[C@@H]2CC[C@]2(C)[C@@H](/C=N/N=C(\N)Nc3ccccc3)CC[C@]12O [Comp. I-ah, (E)-17β-(3-Phenylguanidino)iminomethyl-5β-androstane-3β,14β-diol] | – | 100000 | 6310 | – | –
C[C@]12CC[C@H](O)C[C@H]1CC[C@@H]1[C@@H]2CC[C@]2(C)[C@@H](/C=N/NC3=NCCCN3)CC[C@]12O [Comp. I-ae, (E)-17β-(1,4,5,6-Tetrahydro-2-pyrimidinyl)hydrazonomethyl-5β-androstane-3β,14β-diol] | 251 | – | – | – | Inhibitory Activity log IC50 (Na^+,K+ -ATPase [2]; [8]): 5.3
C/C(=N\N=C(N)N)[C@H]1CC[C@]2(O)[C@@H]3CC[C@@H]4C[C@@H](O)CC[C@]4(C)[C@H]3CC[C@]12C [Comp. I-bk, (E)-20-Guanidinoimino-5β-pregnane-3β,14β-diol] | 251 | 5010 | – | – | –
C[C@]12CC[C@H](OCCN3CCCC3)C[C@H]1CC[C@@H]1[C@@H]2CC[C@]2(C)[C@@H](/C=N/NC3=NCCN3)CC[C@]12O [Comp. I-aw, (E)-3β-(2-(1-Pyrrolidinyl)ethoxy)-17β-(2-imidazolin-2-yl)hydrazonomethyl-5β-androstane-14β-ol] | – | – | 100 | 398 | SBP [5]: 151 +/- 5.2 mm Hg; HR [5]: 388 +/- 9.0 beats/min.
C[C@]12CC[C@H](O)C[C@H]1CC[C@@H]1[C@@H]2CC[C@]2(C)/C(=N/NC3=NCCN3)CC[C@]12O [Comp. I-bo, (E)-17-(2-Imidazolin-2-yl)hydrazono-5β-androstane-3β,14β-diol] | – | – | 2000 | 39800 | –
CSC(=N)N/N=C/[C@H]1CC[C@]2(O)[C@@H]3CC[C@@H]4C[C@@H](O)CC[C@]4(C)[C@H]3CC[C@]12C [Comp. I-ak, (E)-17β-(3-Methylisothiosemicarbazono)methyl-5β-androstane-3β,14-diol] | 2000 | 31600 | – | – | –
C[C@]12CC[C@H](O)C[C@H]1CC[C@@H]1[C@@H]2CC[C@]2(C)[C@@](O)(/C=N/NC3=NCCN3)CC[C@]12O [Comp. I-bn, (E)-17β-(2-Imidazolin-2-yl)hydrazonomethyl-5β-androstane-3β,14β,17α-triol] | 3980 | 12600 | – | – | –
C[C@]12CC[C@H](OCCN3CCCC3)C[C@H]1CC[C@@H]1[C@@H]2CC[C@]2(C)[C@@H](/C=N/NC(=N)N)CC[C@]12O [Comp. I-an, (E)-3β-(2-(1-pyrrolidinyl)ethoxy)-17β-guanidinoiminomethyl-5β-androstane-14β-ol] | – | – | 39.8 | 501 | SBP [5]: 150 +/- 5.1 mm Hg; HR [5]: 384 +/- 7.9 beats/min.
C[C@]12CC[C@H](OCCN3CCCC3)C[C@H]1CC[C@@H]1[C@@H]2CC[C@]2(C)[C@@H](/C=N/NC(N)=O)CC[C@]12O [Comp. I-as, (E)-3β-(2-(1-Pyrrolidinyl)ethoxy)-17β-semicarbazonomethyl-5β-androstane-14β-ol] | 1580 | – | – | 39800 | –
C[C@]12CC[C@H](O)C[C@H]1CC[C@@H]1[C@@H]2CC[C@]2(C)C(C=NNC(=N)N)CC[C@]12O (stereo partly drawn) [17-Guanidinoiminomethyl-5β-androstane-3β,14β-diol] | – | – | – | – | inhibition of Na^+,K+ -ATPase (Na^+,K+ -ATPase [3]): weak inhibitors of Na^+,K+ -ATPase; positive inotropic activity [4]: weak positive inotropic agents
